Reference: patent US5834453A, “Methods for the manufacture and use of antimicrobial sterol conjugates” (Lehigh University, priority 1997, dated 1998)
In brackets after ≈: the same amount, converted by molar mass. Entries after “also recorded” stand apart in the source; their conditions may differ. Where two headings read alike, the source gives them in different places.

Columns and labels:
fungi = assay: Antimicrobial activity (MIC), fungi; assay type: cell-based; conditions: of all the mimics tested
Method: (§1) The antimicrobial activity of the compounds according to the present invention were compared with the results obtained for squalamine as reported in Proc. Nat. Acad. Sci. USA 90:1354 (1993), supra, the disclosure of which is incorporated in toto herein. The data reported in the following table is the minimum inhibitory concentration (MIC) required for complete inhibition of microbial growth. The MIC was determined utilizing known micro-broth dilution methods in which inocula of 10^6 /ml of the test organism were incubated in 0.5× trypticase soy broth at 35° C. for 24 hours. MIC's were also tested under various pH conditions, with calcium chloride or magnesium chloride, or with immobilized horse serum.

E. faecium (T6480-9) = assay: MIC, micro-broth dilution; assay type: cell-based; conditions: Enterococcus faecium, 35° C., 24 hours, read-out: ANTIMICROBIAL ACTIVITY (MIC)
Method: as §1
(§2) The numbers in parentheses contained in the table correspond to accession numbers with the American Type Culture Collection (reference strains were either obtained from the American Type Culture Collection or from the Microbiology Laboratory at Memorial Sloan-Kettering Cancer Center; Bacterial strains were maintained on Columbia 5% sheep blood agar plates, and fungi were maintained on Sabouraud Dextrose agar plates).

C. neoformans (90012) = assay: MIC, micro-broth dilution; assay type: cell-based; conditions: Cryptococcus neoformans, 24 h, read-out: ANTIMICROBIAL ACTIVITY (MIC)
Method: as §1, §2

A. fumigatus (H1120) = assay: MIC, micro-broth dilution; assay type: cell-based; conditions: Aspergillus fumigatus, 35° C., 24 hours, read-out: ANTIMICROBIAL ACTIVITY (MIC)
Method: as §1, §2

K. pneumoniae (13883) = assay: MIC, micro-broth dilution; assay type: cell-based; conditions: Klebsiella pneumoniae, read-out: ANTIMICROBIAL ACTIVITY (MIC)
Method: as §1, §2

S. pyrogenes (19615) = assay: MIC, micro-broth dilution; assay type: cell-based; conditions: 24 h, read-out: ANTIMICROBIAL ACTIVITY (MIC)
Method: as §1, §2

S. aureus (29213) [1] = assay: MIC, micro-broth dilution; assay type: cell-based; conditions: Staphylococcus aureus, 24 h, read-out: ANTIMICROBIAL ACTIVITY (MIC)
Method: as §1, §2

P. vulgaris (13315) = assay: MIC, micro-broth dilution; assay type: cell-based; conditions: Proteus vulgaris, 35° C., 24 hours, read-out: ANTIMICROBIAL ACTIVITY (MIC)
Method: as §1, §2

S. epidermidis (12228) = assay: MIC, micro-broth dilution; assay type: cell-based; conditions: Staphylococcus epidermidis, 35° C., 24 hours, read-out: ANTIMICROBIAL ACTIVITY (MIC)
Method: as §1, §2

E. cloacae (13047) = assay: MIC, micro-broth dilution; assay type: cell-based; conditions: Enterobacter cloacae, 35° C., 24 hours, read-out: ANTIMICROBIAL ACTIVITY (MIC)
Method: as §1, §2

S. pneumoniae (6305) = assay: MIC, micro-broth dilution; assay type: cell-based; conditions: Streptococcus pneumoniae, 35° C., 24 hours, read-out: ANTIMICROBIAL ACTIVITY (MIC)
Method: as §1, §2

E. coli (25922) = assay: MIC, micro-broth dilution; assay type: cell-based; conditions: Escherichia coli, 35° C., 24 hours, read-out: ANTIMICROBIAL ACTIVITY (MIC)
Method: as §1, §2

A. fumigatus (H29709) = assay: MIC, micro-broth dilution; assay type: cell-based; conditions: Aspergillus fumigatus, 35° C., 24 hours, read-out: ANTIMICROBIAL ACTIVITY (MIC)
Method: as §1, §2

S. agalactiae (13813) = assay: MIC, micro-broth dilution; assay type: cell-based; conditions: Streptococcus agalactiae, 35° C., 24 hours, read-out: ANTIMICROBIAL ACTIVITY (MIC)
Method: as §1, §2

C. albicans (90028) = assay: MIC, micro-broth dilution; assay type: cell-based; conditions: Candida albicans, 35° C., 24 hours, read-out: ANTIMICROBIAL ACTIVITY (MIC)
Method: as §1, §2

P. aeruginosa (2853) [2] = assay: MIC, micro-broth dilution; assay type: cell-based; conditions: Pseudomonas aeruginosa, 24 h, read-out: ANTIMICROBIAL ACTIVITY (MIC)
Method: as §1, §2

S. aureus (25923) = assay: MIC, micro-broth dilution; assay type: cell-based; conditions: Staphylococcus aureus, 35° C., 24 hours, read-out: ANTIMICROBIAL ACTIVITY (MIC)
Method: as §1, §2

C. neoformans (M68979) = assay: MIC, micro-broth dilution; assay type: cell-based; conditions: Cryptococcus neoformans, 24 h, read-out: ANTIMICROBIAL ACTIVITY (MIC)
Method: as §1, §2

S. aureus (H20809) = assay: MIC, micro-broth dilution; assay type: cell-based; conditions: Staphylococcus aureus, 24 h, read-out: ANTIMICROBIAL ACTIVITY (MIC)
Method: as §1, §2

E. faecalis (29212) = assay: MIC, micro-broth dilution; assay type: cell-based; conditions: Enterococcus faecalis, 35° C., 24 hours, read-out: ANTIMICROBIAL ACTIVITY (MIC)
Method: as §1, §2

S. marcescens (13880) [3] = assay: MIC, micro-broth dilution; assay type: cell-based; conditions: for MIC: Serratia marcescens, 24 h, read-out: ANTIMICROBIAL ACTIVITY (MIC)
Method: as §1, §2

P. aeruginosa (10145) = assay: MIC, micro-broth dilution; assay type: cell-based; conditions: Pseudomonas aeruginosa, 35° C., 24 hours, read-out: ANTIMICROBIAL ACTIVITY (MIC)
Method: as §1, §2

gram positive cocci = assay: Antimicrobial activity (MIC), gram positive cocci; assay type: cell-based; conditions: of all the mimics tested
Method: as §1

sheep red blood cells = assay: Hemolytic activity, minimal hemolytic concentration (MHC); assay type: cell-based;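 for MCC: MCC here is the minimal hemolytic concentration (MHC)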
Method: (§3) Hemolytic activity of the squalamine mimics according to the present invention were also studied by incubating sheep red blood cells for 24 hours at 37° C. in saline (final concentration of 0.5%) with or without respective concentrations of the squalamine mimics. The minimal hemolytic concentration (MHC) was determined as the lowest concentration of a mimic that raised visible hemolysis.

[4] = as above; assay type: cell-based, sheep
Method: as §3

[5] = system: various groups of microorganisms; assay: Antimicrobial activity (MIC), all microorganisms tested; assay type: cell-based
Method: as §1, §2

S. aureus (29213) [6] = conditions: S. aureus ATCC 29213; as reported in the literature; cited from earlier work
P. aeruginosa (2853) [7] = conditions: P. aeruginosa ATCC 27853; as reported in the literature; cited from earlier work
S. marcescens (13880) [8] = conditions: known; cited from earlier work
P. vulgaris = P. vulgaris ATCC 13883; as reported in the literature; cited from earlier work
[9] = system: various groups of microorganisms; conditions: broad spectrum of microorganisms; cited from earlier work

| SMILES | MIC (E. faecium (T6480-9)) | MIC (C. neoformans (90012)) | MIC (A. fumigatus (H1120)) | MIC (S. pyrogenes (19615)) | MIC (S. aureus (29213) [1]) | MIC (P. vulgaris (13315)) | MIC (S. epidermidis (12228)) | MIC (E. cloacae (13047)) | MIC (S. pneumoniae (6305)) | MIC (E. coli (25922)) | MIC (A. fumigatus (H29709)) | MIC (S. agalactiae (13813)) | MIC (C. albicans (90028)) | MIC (P. aeruginosa (2853) [2]) | MIC (S. aureus (25923)) | MIC (C. neoformans (M68979)) | MIC (S. aureus (H20809)) | MIC (E. faecalis (29212)) | MIC (S. marcescens (13880) [3]) | MIC (P. aeruginosa (10145)) | other results |
| --- | --- | --- | --- | --- | --- | --- | --- | --- | --- | --- | --- | --- | --- | --- | --- | --- | --- | --- | --- | --- | --- |
| C[C@H](CCC(=O)NCCCNCCCCNCCCN)[C@H]1CC[C@H]2[C@@H]3CC[C@@H]4C[C@H](O)CC[C@]4(C)[C@H]3CC[C@]12C [SM-25] | 3.13 µg/mL (≈ 5.58 µM) | 0.39 µg/mL (≈ 0.695 µM) | 12.5 µg/mL (≈ 22.3 µM) | 0.78 µg/mL (≈ 1.39 µM) | 0.78 µg/mL (≈ 1.39 µM) | 12.5 µg/mL (≈ 22.3 µM) | 0.39 µg/mL (≈ 0.695 µM) | > 100 µg/mL | 3.13 µg/mL (≈ 5.58 µM) | 1.56 µg/mL (≈ 2.78 µM) | 12.5 µg/mL (≈ 22.3 µM) | 0.78 µg/mL (≈ 1.39 µM) | 3.13 µg/mL (≈ 5.58 µM) | 0.78 µg/mL (≈ 1.39 µM) | 0.78 µg/mL (≈ 1.39 µM) | 0.39 µg/mL (≈ 0.695 µM) | 0.39 µg/mL (≈ 0.695 µM) | 3.13 µg/mL (≈ 5.58 µM) | > 100 µg/mL | 3.13 µg/mL (≈ 5.58 µM) | potency ranking against fungi (fungi): most potent activity against gram positive cocci and fungi of all the mimics tested; MIC (K. pneumoniae (13883); 24 h): > 100 µg/mL; potency ranking against gram positive cocci (gram positive cocci): most potent activity against gram positive cocci and fungi of all the mimics tested; hemolytic activity (in words) (sheep red blood cells): unwanted hemolytic activity; minimal hemolytic concentration (MHC) at 24 h ([4]; sheep red blood cells, 24 hours at 37° C. in saline): 50 µg/mL; antimicrobial activity (in words) [5]: highly active; also recorded: more activity than SM-8, SM-14, and SM-22 |
| C[C@H](CCC(=O)NCCCNCCCCNCCCN)[C@H]1CC[C@H]2[C@@H]3[C@H](O)C[C@@H]4C[C@H](O)CC[C@]4(C)[C@H]3CC[C@]12C [SM-34] | 6.25 µg/mL (≈ 10.8 µM) | 0.78 µg/mL (≈ 1.35 µM) | 12.5 µg/mL (≈ 21.7 µM) | 0.78 µg/mL (≈ 1.35 µM) | 1.56 µg/mL (≈ 2.7 µM) | 12.5 µg/mL (≈ 21.7 µM) | 0.78 µg/mL (≈ 1.35 µM) | 12.5 µg/mL (≈ 21.7 µM) | 3.13 µg/mL (≈ 5.43 µM) | 3.13 µg/mL (≈ 5.43 µM) | 12.5 µg/mL (≈ 21.7 µM) | 1.56 µg/mL (≈ 2.7 µM) | 3.13 µg/mL (≈ 5.43 µM) | 12.5 µg/mL (≈ 21.7 µM) | 0.78 µg/mL (≈ 1.35 µM) | 3.13 µg/mL (≈ 5.43 µM) | 1.56 µg/mL (≈ 2.7 µM) | 3.13 µg/mL (≈ 5.43 µM) | 12.5 µg/mL (≈ 21.7 µM) | 25 µg/mL (≈ 43.3 µM) | MIC (K. pneumoniae (13883); K. pneumoniae (13883), 35° C., 24 hours): 8.25 µg/mL (≈ 14.3 µM); activity against S. marcescens (S. marcescens (13880) [3]; in words): found even against S. marcescens; also recorded: effective against S. marcescens; hemolytic activity (in words) (sheep red blood cells): unwanted hemolytic activity; MCC at 24 h ([4]; sheep, red blood cells): 25 µg/mL; antimicrobial activity (in words) [5]: highly active |
| CC(C)C(CC[C@@H](C)[C@H]1CC[C@H]2[C@@H]3[C@H](O)C[C@H]4C[C@@H](NCCCNCCCCN)CC[C@]4(C)[C@H]3CC[C@]12C)OS(=O)(=O)O (stereo partly drawn) [squalamine, 3β-N-1-{N-[3-(4-aminobutyl)]-1,3-diaminopropane}-7α,24.zeta.-dihydroxy-5α-cholestane 24-sulfate] |  |  |  |  |  |  |  |  |  |  |  |  |  |  |  |  |  |  |  |  | MIC of squalamine (S. aureus (29213) [6]): 1 to 2 µg/mL; MIC of squalamine (P. aeruginosa (2853) [7]): 4 to 8 µg/mL; resistance of S. marcescens to squalamine (S. marcescens (13880) [8]): known to be resistant to squalamine; MIC of squalamine (P. vulgaris): 4 to 8 µg/mL; antimicrobial activity of squalamine (in words) [9]: potent antimicrobial activity against a broad spectrum of microorganisms |
